This note sets out measurements from US9592225B2, “Crystalline N-[5-(aminosulfonyl)-4-methyl-1,3-thiazol-2-yl]-N-methyl-2-[4-(2-pyridinyl)phenyl]acetamide mono mesylate monohydrate having a specific particle size distribution range and a specific surface area range for use in pharmaceutical formulations” (AICURIS ANTI-INFECTIVE CURES GMBH, priority 2011, dated 2017).

Each structure is given as a SMILES string.

Series [1] can be described thus: Single-dose escalation and pharmacokinetics in human volunteers. The class given is in vivo. The source says: Exposure of the free base form of N-[5-(aminosulfonyl)-4-methyl-1,3-thiazol-2-yl]-N-methyl-2-[4-(2-pyridinyl)-phenyl]acetamide to the human body may be measured by high pressure liquid chromatography (HPLC) by looking at different pharmacokinetic parameters in suitable bodily fluids such as for instance blood plasma and urine, the most common parameters being the Cmax, the so-called area under the curve (AUC), and the terminal half-life (t1/2Z). Hereto, the person skilled in the art understands that said parameters are determined by using adequate bioanalytical methods with adequate sensitivity, specificity, ruggedness, stability and repeatability, as for instance a qualified liquid chromatography triple quad mass spectrometry based method coupled with a suitable extraction method for the separation of the analyte from, e.g. the blood plasma.
Therefore, pharmacokinetic studies in human subjects were undertaken following both single and multiple dose administrations of the crystalline mono mesylate monohydrate salt of N-[5-(aminosulfonyl)-4-methyl-1,3-thiazol-2-yl]-N-methyl-2-[4-(2-pyridinyl)phenyl]-acetamide, wherein the particle size distribution is preferably defined by d(0.1) from 2 to 100 μm, d(0.5) from 30 to 210 μm and d(0.9) from 70 to 400 μm with a specific surface area of the particles less than 1.0 m^2/g, and more preferably defined by d(0.1) from 10 to 75 μm, d(0.5) from 100 to 175 μm, d(0.9) from 200 to 350 μm with a specific surface area of the particles less than 0.3 m^2/g.
Single oral doses of the crystalline mono mesylate monohydrate salt of N-[5-(aminosulfonyl)4methyl1,3thiazol-2-yl]-N-methyl-2-[4-(2-pyridinyl)phenyl]acetamide using the formulations according to example 2, Table 2, were administered to six volunteers per dose step. The overall shape of the plasma concentrations vs. time profiles were similar across all doses (see FIG. 9 and FIG. 12). […]
AUC0-∞: Area under the analyte vs. time concentration from time of administration up to infinity, calculated as
[formula] wherein A0-last is defined as the area under the analyte vs. time concentration up to time of the last qualifiable concentration, calculated by linear up/log down summation and Clast is defined as last quantifiable observed analyte concentration. λz is the apparent terminal elimination rate constant, determined by linear regression of terminal points of In-linear analyte concentration-time curve.
Cmax is the maximal observed analyte concentration and tmax is the time to reach Cmax; t1/2z is defined as the apparent terminal elimination half-life, calculated as
MRT: Mean Residence Time; calculated AUMC divided by AUC, wherein AUMC is the area under the first moment of the concentration-time curve from zero up to ∞ with extrapolation of the terminal phase and AUC is the area under the concentration-time curve from zero up to ∞ with extrapolation of the terminal phase. […]

Series [2] is described as follows: Multiple-dose escalation and steady-state pharmacokinetics in healthy volunteers. The class given is in vivo, human. The conditions noted are these: for AUGτ: day 21 steady state, n=12. The text has this:
For the three doses of the mono mesylate monohydrate salt of N-[5-(aminosulfonyl)-4-methyl-1,3-thiazol-2-yl]-N-methyl-2-[4-(2-pyridinyl)phenyl]acetamide in formulation according to example 1, Table 2, wherein the particle size distribution is preferably defined by d(0.1) from 2 to 100 μm, d(0.5) from 30 to 210 μm and d(0.9) from 70 to 400 μm with a specific surface area of the particles less than 1.0 m^2/g, and more preferably defined by d(0.1) from 10 to 75 μm, d(0.5) from 100 to 175 μm, d(0.9) from 200 to 350 μm with a specific surface area of the particles less than 0.3 m^2/g, investigated (5, 25, and 100 mg as free base equivalent; once per day oral administration, […]), the individual concentration-time curves of the free base N-[5-(aminosulfonyl)-4-methyl-1,3-thiazol-2-yl]Nmethyl-2-[4-(2-pyridinyl)phenyl]acetamide at day 1 (after the first administration) were very similar in their general shape and slope to those profiles obtained in the single dose escalation trial (see Example 6).
At steady state, there was a low inter-individual variability of minimal or “trough” concentrations with CVs (coefficient of variations) between 16.7 and 21.7% (day 21). For all doses, the individual and mean concentration-time curves of the free base of N-[5-(aminosulfonyl)-4-methyl-1,3-thiazol-2-yl]-N-methyl-2-[4-(2-pyridinyl)phenyl]acet-amide at day 21 were very similar in their shape and slope to those profiles obtained at day 1.
Table 10: Steady state pharmacokinetic parameters of the free base N-[5-(aminosulfonyl)-4-methyl-1,3-thiazol-2-yl]-N-methyl-2-[4-(2-pyridinyl)phenyl]acetamide at day 21 after daily administrations of 5, 25, or 100 mg as free base equivalent of the mono mesylate monohydrate salt of N-[5-(aminosulfonyl)-4-methyl-1,3-thiazol-2-yl]-N-methyl-2-[4-(2-pyridinyl)phenyl]acetamide in formulation according to example 2, Table 2, wherein the particle size distribution is preferably defined by d(0.1) from 2 to 100 μm, d(0.5) from 30 to 210 μm and d(0.9) from 70 to 400 μm with a specific surface area of the particles less than 1.0 m^2/g, and more preferably defined by d(0.1) from 10 to 75 μm, d(0.5) from 100 to 175 μm, d(0.9) from 200 to 350 μm with a specific surface area of the particles less than 0.3 m^2/g, to healthy volunteers (n=12 per dose).

A short description of another series: Thermostability. Particulars: compared to the mesylate salt. Format: physicochemical. The text has this:
A clear advantage of the N-[5-(aminosulfonyl)-4-methyl-1,3-thiazol-2-yl]-N-methyl-2-[4-(2-pyridinyl)phenyl]acetamide mono mesylate monohydrate, wherein the PSD, PSR and SSA are as defined herein, is its proven long-term stability. Therefore, the inventive N-[5-(aminosulfonyl)-4-methyl-1,3-thiazol-2-yl]-N-methyl-2-[4-(2-pyridinyl)-phenyl]acetamide mono mesylate monohydrate, which is characterized by the PSD, PSR and SSA as disclosed herein, is better suited for the preparation of long-term stable tablets compared to the free base form of N-[5-(aminosulfonyl)-4-methyl-1,3-thiazol-2-yl]-N-methyl-2-[4-(2-pyridinyl)phenyl]acetamide.

The subject of a further series is HSV. The series can be described thus: Murine HSV skin infection model. Format: in vivo. Particulars: oral doses of 5 mg/kg or higher once daily for four days; data not shown. On the procedure: To assess the pharmacokinetic/pharmacodynamic profile the effective dose of the free base of N-[5-(aminosulfonyl)-4-methyl-1,3-thiazol-2-yl]-N-methyl-2-[4-(2-pyridinyl)phenyl]-acetamide was validated in a murine HSV skin infection model and associated plasma concentrations were determined (data not shown).
(§1) In healthy male volunteers these plasma concentrations were covered by a single dose of 40 mg as free base equivalent to the crystalline mono mesylate monohydrate salt of N-[5-(aminosulfonyl)-4-methyl-1,3-thiazol-2-yl]-N-methyl-2-[4-(2-pyridinyl)phenyl]acetamide (see FIG. 10) and at steady state by daily doses of 25 mg as free base equivalent (see FIG. 11) for 21 days.

Series [3] is described as follows: Safety and tolerability in phase I trials. The conditions noted are these: healthy male volunteers, single and multiple dose, up to the highest dose tested. The class given is in vivo, human. On the procedure: The results were compared with the effective concentration of the free base of N-[5-(aminosulfonyl)-4-methyl-1,3-thiazol-2-yl]-N-methyl-2-[4-(2-pyridinyl)phenyl]acetamide in cell culture and correlated to exposures reached in healthy male volunteers in single and multiple dose phase I trials (see FIGS. 9-13).
as §1

Consider `CS(=O)(=O)O.Cc1nc(N(C)C(=O)Cc2ccc(-c3ccccn3)cc2)sc1S(N)(=O)=O` [mono mesylate monohydrate, N-[5-(aminosulfonyl)-4-methyl-1,3-thiazol-2-yl]-N-methyl-2-[4-(2-pyridinyl)-phenyl]acetamide mono methanesulfonic acid monohydrate], for which the “gender-related difference in exposure” value in series [1] (single dose of 80 mg as free base equivalent, after normalization to body weight) is “No clinical relevant gender-related difference”. In addition, the “relation of maximum plasma concentrations to dose” value in series [1] (single doses from 5 mg to 400 mg as free base equivalent) was “linearly related to doses”. Further, in series [1] (single doses from 5 mg to 480 mg as free base equivalent), the “relation of AUC0-∞ to dose” value was “dose-proportional increase”. Also, in series [1] (single oral dose 480 mg as free base equivalent), the “mean maximum blood plasma concentration (mean Cmax) of the free base” value was 6921 ± 2190 ng/mL. Moreover, the “AUC0-∞” value in series [1] (single oral dose 600 mg free base equivalent, mean, n=6) amounted to 320800 ng·h/mL. Besides, the AUGτ in series [2] (human, 5 mg free base equivalent once daily oral) was found to be 5094 ng·h/mL; in series [2] (human, 25 mg free base equivalent once daily oral), 23430 ng·h/mL; in series [2] (human, 100 mg free base equivalent once daily oral), 108800 ng·h/mL. Further, the “relation of steady-state exposure (Ctrough, AUCτ, Cmax,ss, Cav) to dose” value in series [2] (human, 5, 25, 100 mg once daily) was “dose-proportional increase”. Moreover, the “relation of AUC0-24 h and Cmax at day 1 to dose” value in series [2] (human, 5, 25, 100 mg, after the first administration) is reported as “dose-proportional increases”. In series [2] (human, all doses applied (5, 25, 100 mg once daily)), the “accumulation ratio R for both AUC and Cmax” value was roughly 5. The thermostability entry in “Thermostability” is “up to 170 °C”.

Take `Cc1nc(N(C)C(=O)Cc2ccc(-c3ccccn3)cc2)sc1S(N)(=O)=O` [free base, N-[5-(aminosulfonyl)-4-methyl-1,3-thiazol-2-yl]-N-methyl-2-[4-(2-pyridinyl)phenyl]acetamide]: the “suppression of murine HSV skin infection” value with HSV is on record as “completely suppressed the murine infection”. Moreover, the safety and tolerability entry in series [3] is “safe and well tolerated”.
